Assay results reported in the RepoRT retention time repository.

Assay: Agilent ZORBAX 300 SB-C18, 150 × 1 mm, 3.5 µm; A: water + 0.01% heptafluorobutyric acid; B: acetonitrile + 0.01% heptafluorobutyric acid; gradient (min/%B) 0/0 100/90
Conditions: stereoisomer not certain

SMILES	LC retention time
N=C(N)SCCSCCSC(=N)N	7.21 min
Cn1c(=O)[nH]c(=O)n(C)c1=O	5.9 min
Cc1cc(O)c(C(C)C)cc1CNC(=O)c1ccccc1O	14.4 min
COC(C)C(N)=O (stereo unspecified)	2.9 min
CN(C)C1CCNC1 (stereo unspecified)	6.6 min
CC1C(=O)CC[N+](C)(C)C1C (stereo unspecified)	7.63 min
Cn1c(-c2c(-c3ccc4ccccc4n3)cnc3ccccc23)nc2ccccc21	12.3 min
NC(=O)NCc1ccccn1	3.95 min
CNCc1cccc(OC)c1OC	7.9 min
c1ccc(-c2cc(-c3ccccc3)n(-c3ccccc3)n2)cc1	19 min
CCOC(=O)C=CC(=O)NNC(=O)C(c1ccccc1)c1ccccc1	12.8 min
COC(=O)Cc1ccc(N)cc1N	7.24 min
Cc1cncc(C)n1	7.44 min
NC(=S)CCc1ccccn1	6.55 min
Cc1ccc(-n2nc(-c3cn(C)nc3C)cc2-c2cn(C)nc2C)cc1	12 min
CNC1CCCCC1NC (stereo unspecified)	7.14 min
CC(=O)NNc1nc(C)cc(C)n1	6.5 min
Oc1ccc2c(c1)C13CCCCC1(O)C(C2O)N(CC1CCC1)CC3 (stereo unspecified)	8.68 min
CC1CCCCN1C(=O)c1ccccc1N (stereo unspecified)	11.1 min
Nc1nc(N)c2nc(-c3ccccc3)c(N)nc2n1	8.71 min
Cc1cccc(NC(=O)C(Cc2c[nH]c3ccccc23)NC(=O)C(c2ccccc2)c2ccccc2)c1C (stereo unspecified)	16.7 min

SMILES	LC retention time
COc1cc(Cc2cnc(N)nc2N)cc(OC)c1OC	8.69 min
Cc1ccc(C2C3=C(CC(C)(C)CC3=O)NC3=C2C(=O)CC(C)(C)C3)cc1	13.2 min
CC1(C)CC(NC(=O)C(=O)NCCc2ccccc2)CC(C)(C)N1	9.44 min
C[N+]1(CCOCc2ccccc2)CC[N+](C)(CCOCc2ccccc2)CC1 (stereo unspecified)	9.32 min
C=C(C)CC1C=CCC(CC(=C)C)N1Cc1ccccc1 (stereo unspecified)	11.9 min
CC(C)(CO)Nc1c[nH]c(=O)[nH]c1=O	6.01 min
CNCC(O)c1cccc(O)c1 (stereo unspecified)	7.2 min
c1ccc(SCSc2ccccn2)nc1	13.7 min
NCCCSc1ccccc1	8.67 min
CNCCO	2.61 min
Cn1c(=O)c2cc(C(=O)O)ccc2n(C)c1=O	8.5 min
Cc1cc(C)c(C=CC(=O)c2cccs2)c(C)c1	18.2 min
CC(NC(=O)c1cccnc1)C(=O)N1CCCCC1 (stereo unspecified)	8.28 min
CCCCCCC=CC(C)=O	16.2 min
c1ccc2c(c1)CCN2	7.26 min
Cc1ccc2nc3nc(C)cc(C)c3c(N)c2c1	8.99 min
O=c1[nH][nH]c(=O)n1-c1ccc2c(c1)OCO2	6.9 min
CCCC[N+](CCCC)(CCCC)CCCC	13.2 min
O=C1CCCN1CP(=O)(O)CCc1ccccc1	7.26 min
CCOC(=O)C1C(C)=NC(=O)NC1C (stereo unspecified)	8.75 min
CCOc1ccccc1NC(=O)c1cc(=O)[nH]c(=O)[nH]1	9.16 min

SMILES	LC retention time
c1ccc2c(c1)[nH]c1ccccc12	14.6 min
CCc1ncc[nH]1	6.1 min
CCN(CC)C(=O)c1ccc(O)c(OC)c1	9.39 min
CCCNC(=O)N1CCCC(C(N)=O)C1 (stereo unspecified)	6.98 min
C=C(C)C1CCC2=CC(=O)CC(C)C2(C)C1 (stereo unspecified)	17.1 min
Nc1c2ccccc2nc2ccccc12	8.38 min
O=C1C(=Cc2ccco2)C(=O)c2ccccc21	14 min
COc1cc(C=CC(=O)c2ccc(C)cc2)cc(OC)c1OC	15.9 min
NCCCCCCN	6.78 min
COC(=O)CCCCCN	7.25 min
CN(C)CC(C)(C)CO	6.43 min
CC(C)(C=O)CN1CCCC1	6.76 min
C=Cc1ccccn1	6.97 min
Nc1ncnc2[nH]ncc12	5.98 min
c1ccc(-n2cnnn2)cc1	9.44 min
Cc1ccc2cc(-c3cccs3)[nH]c2c1	16.4 min
CN(C)CCOC(c1ccccc1)c1ccccc1	10.9 min
CC(=O)C=Cc1ccccc1	11.8 min
Cc1cn(C2CC(O)C(CO)O2)c(=O)[nH]c1=O (stereo unspecified)	8.97 min
C(=Cc1ccco1)C=NN1CCN(Cc2cccc3ccccc23)CC1	11.2 min
CC12CCC(O)CC1=CCC1C2CCC2(C)C(N)CCC12 (stereo unspecified)	8.88 min

SMILES	LC retention time
c1coc(CN2CCNCC2)c1	7.3 min
Cc1cccc(C)n1	6.46 min
Cc1cc(C)[nH]n1	6.99 min
CCN(CC)c1ccc(CCN)cc1	8.39 min
CCC(C)C(N)C(=O)N1CCCC1C(=O)NC(C(=O)O)C(C)CC (stereo unspecified)	8.56 min
CC(=O)N(C)C1=C(N2CCCC2)C(=O)c2ccccc2C1=O	11.2 min
CC(Cc1ccccc1)N(C)Cc1ccccc1 (stereo unspecified)	10.8 min
CC(C)(C)C(=N)C(C)(C)C	8.06 min
Cc1ccc(-n2cnnn2)nc1	9.44 min
NC1=NCCS1	5.28 min
C=CCOc1ccccc1OCC(O)CNC(C)C (stereo unspecified)	9.94 min
CCn1c(C)n[nH]c1=S	6.98 min
C#CC(C)(C)N	6.38 min
Cc1ccc2c(c1)C(=O)c1cnc(C)cc1-2	10.3 min
c1ccc2[nH]ncc2c1	9.07 min
Nc1ncc2c(n1)CCC2	6.96 min
Cn1ccnc1	3.76 min
C[N+](C)(C)c1cnc(=O)[nH]c1	2.5 min
CCCCCCCCCC(=O)NCCCCC(=O)O	13.5 min

The next lines start with the values.

LC retention time	SMILES
8.46 min	Nc1cc[n+](Cc2ccccc2)cc1
10.8 min	Cc1nnc(Oc2ccccc2)c2ccccc12
7.26 min	NC(=O)Nc1ccccc1
7.92 min	CN(CCO)C(=O)Nc1ccccc1
10.2 min	CCn1c2ccccc2c2cc(CNC)ccc21
15.1 min	COC(=O)COC(=O)c1ccccc1NC(=O)c1ccccc1
10.9 min	O=C(NN=Cc1cc2ccccc2[nH]1)c1ccccc1
9.42 min	CN(C)c1ccc(C(O)c2ccc(N(C)C)cc2)cc1
18.4 min	CCc1cccc2ccn(Cc3ccccc3)c12
6.9 min	CC(=O)Nc1ccc(NC(=O)CCC(=O)O)cc1
6.94 min	CCc1ccncc1
7.41 min	CC(=O)Nc1ccc(C(=O)NCc2ccccn2)cc1
8.05 min	Nc1ccccc1NC(=O)Nc1ccccc1N
10.2 min	COc1ccc(NC(=O)Nc2ccc(OC)c(OC)c2)cc1OC
9.41 min	CN(C)c1ccc(C=NNC(=O)c2cccc(N)c2)cc1
12.4 min	Cc1cc(C)c2ccc3ccccc3c2n1
8.48 min	NNc1cccc2ncccc12
12.5 min	CCOc1ccc(N2C(=O)CC(N(Cc3ccc4c(c3)OCO4)C(C)=O)C2=O)cc1 (stereo unspecified)
10.4 min	NC(Cc1ccccc1)C(=O)Nc1ccc2ccccc2c1 (stereo unspecified)
9.03 min	COC(=O)CCc1ccc(C)c(N)c1
13 min	O=C1c2ccccc2-c2nc3ccccc3nc21
13.7 min	CN(C)c1ccc(C=C2Nc3ccccc3C2=O)cc1
13.9 min	CC(=NNC(=O)CNC(=O)C(c1ccccc1)c1ccccc1)c1ccc(N(C)C)cc1
12.5 min	CC(=O)Nc1c(C)cc(C)cc1NC(=O)c1cc2ccccc2o1
14.7 min	COc1ccc(-c2cnc3ccccc3n2)cc1

LC retention time	SMILES
10.2 min	Cc1ccc2cc(-c3ccncc3)[nH]c2c1
15.7 min	CC=CC=CC(=O)Nc1ccc(C=CC(=O)c2ccccc2)cc1
12.7 min	c1ccc(Cn2c3ccccc3n3c(Nc4ccccc4)nnc23)cc1
9.17 min	O=C(NCc1cccnc1)c1cccc2ccccc12
21.5 min	CCCCc1ccc(NC=CC(=O)c2ccc(C)cc2)cc1
13.1 min	CC(C)NC(=O)c1ccc2ccccc2n1
7.75 min	CC(=O)Nc1ccc(Cc2ccncc2)cc1
16.9 min	CCOC(=O)c1ccc(NC(=O)C(c2ccccc2)c2ccccc2)cc1
16 min	S=C(NCc1ccc2[nH]c3c(c2c1)CCCC3)Nc1cccc2ccccc12
14.1 min	COc1ccc(OCc2nc3ccccc3nc2C)cc1
9.6 min	c1ccc(CNCCNc2ccccc2)cc1
6.92 min	CC(=O)Nc1cccc2ncccc12
11.7 min	Cc1ccc(C(=O)NCc2ccco2)cc1
14.5 min	Cc1ccccc1C=NNC(=O)C(O)(c1ccccc1)c1ccccc1
14.8 min	O=C(CNc1ccc2ccccc2c1)NN=Cc1ccccc1
9.04 min	CCCc1ccc(N)cc1
15.1 min	Cc1ccc(C(=O)Nc2ccc3[nH]c4c(c3c2)CCCC4)cc1
17.8 min	O=C(Cc1ccccc1)Nc1ccc(-c2nc(-c3ccccc3)c3cc(NC(=O)Cc4ccccc4)ccc3n2)cc1
11.6 min	CCOC(=O)c1ccc(NC(=O)N2CCCC2)cc1
8.94 min	CC(CCc1ccc(O)cc1)NCCc1ccc(O)c(O)c1 (stereo unspecified)
11.7 min	CNCCCC12CCC(c3ccccc31)c1ccccc12
13.2 min	CC1=C(C(=O)c2ccccc2)CC(C(=O)c2ccccc2)=C(C)N1
7.22 min	Nc1ccc(CCc2ccncc2)cc1
10.3 min	CC(=O)Nc1ccc(C2=NNC(c3ccccc3)C2)cc1 (stereo unspecified)
